Molecular target: D184A mutant CB1 receptor (Homo sapiens, UniProt P21554, D184A)
Experiment: Methanandamide competition binding with [3H]CP55940 as tracer
Settings: [3H]CP55940 tracer

Sequence of D184A mutant CB1 receptor (P21554 whole entry D184A): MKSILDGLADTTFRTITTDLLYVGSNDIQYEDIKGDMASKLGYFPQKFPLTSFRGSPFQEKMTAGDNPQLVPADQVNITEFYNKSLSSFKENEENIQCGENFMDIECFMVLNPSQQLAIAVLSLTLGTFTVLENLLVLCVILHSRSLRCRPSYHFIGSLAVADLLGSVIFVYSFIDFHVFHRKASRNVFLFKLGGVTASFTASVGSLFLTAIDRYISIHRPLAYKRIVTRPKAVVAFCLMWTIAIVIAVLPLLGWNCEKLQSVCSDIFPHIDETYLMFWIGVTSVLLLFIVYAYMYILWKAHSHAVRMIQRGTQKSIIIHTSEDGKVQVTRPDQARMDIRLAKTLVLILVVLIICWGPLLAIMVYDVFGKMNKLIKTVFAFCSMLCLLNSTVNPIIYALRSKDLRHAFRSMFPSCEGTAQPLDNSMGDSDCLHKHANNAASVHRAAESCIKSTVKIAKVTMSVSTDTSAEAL

## CCCCC/C=C\C/C=C\C/C=C\C/C=C\CCCC(=O)N[C@H](C)CO [methanandamide]
Agonist alone, no modulator
  methanandamide binding: did not bind
With 1 μM PSNCBAM-1
  methanandamide binding: binding was restored

From article PMC6906232 (The Journal of pharmacy and pharmacology, 2019)
